From paper PMC9977294, “A parasitic fungus employs mutated eIF4A to survive on rocaglate-synthesizing Aglaia plants” (eLife, 2023)
Several values for one entry are separate records, joined by “and”; a condition that tells them apart may be missing. Identical values can stand only once.

Tests used:
[1] = tested on: C. orbiculare eIF4A^His153Gly; assay: In planta fungal biomass on cucumber cotyledons (RT-qPCR); type: in vivo, Colletotrichum orbiculare; details: cucumber leaves; 1 µM aglafoline; 3 dpi; Figure 4B
Protocol: Fungal inoculation was performed as previously described ([Hiruma and Saijo, 2016]; [Kumakura et al., 2019]) with modifications. Cucumber cotyledons were used for C. orbiculare inoculation. Seeds of cucumber, Cucumis sativus Suyo strain (Sakata Seed Corp.), were planted on a mix of equal amounts of vermiculite (VS Kakou) and Supermix A (Sakata Seed Corp.). Cucumbers were grown at 24°C under a 10 hr light/14 hr dark cycle using biotrons (NK Systems). Cotyledons were detached from seedlings of cucumbers and inoculated with C. orbiculare at 13 days post-germination. C. orbiculare strains (eIF4A^WT#1 and eIF4A^H153G#1, Supplementary file 4) were cultured on 100 ml of 3.9% PDA in a 300 ml flask at 25°C for 6 days in the dark. Conidia that appeared on the surface of PDA were suspended in 20 ml of sterilized water, filtered through cell strainers (100 µm pore size, Corning), pelleted by centrifugation at 760 × g for 5 min, and resuspended in sterilized water. The concentration of conidia was measured with disposable hemacytometers (Funakoshi) and adjusted to 10^5 conidia/ml with or without aglafoline (1 µM). […]
Relative expression levels of the C. orbiculare 60S ribosomal protein L5 gene (GenBank: Cob_v012718) ([Gan et al., 2013]) normalized to that of a cucumber cyclophilin gene (GenBank: AY942800.1) ([Liang et al., 2018]) were determined. […]

[2] = molecular target: T1, H. sapiens eIF4A1 Phe163His (Homo sapiens, UniProt P60842, F163H); assay: Fluorescence polarization assay, FAM-labeled [AG]10 RNA and recombinant eIF4A; type: binding; details: RocA 50 µM
T1 construct: His tag (N); made in house; host or cells: E. coli BL21 Star (DE3)
T1 sequence (P60842 whole entry F163H): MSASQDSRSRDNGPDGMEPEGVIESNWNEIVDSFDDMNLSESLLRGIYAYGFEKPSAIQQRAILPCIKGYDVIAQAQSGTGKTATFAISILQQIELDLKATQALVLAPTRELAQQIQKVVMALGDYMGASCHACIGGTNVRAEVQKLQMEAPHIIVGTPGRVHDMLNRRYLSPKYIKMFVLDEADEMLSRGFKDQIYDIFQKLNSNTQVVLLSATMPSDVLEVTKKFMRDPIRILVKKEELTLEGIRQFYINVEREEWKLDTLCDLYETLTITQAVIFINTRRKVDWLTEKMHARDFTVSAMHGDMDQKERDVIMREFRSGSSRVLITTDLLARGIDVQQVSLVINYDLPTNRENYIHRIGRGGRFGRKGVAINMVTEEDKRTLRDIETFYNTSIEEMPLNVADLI

H. sapiens eIF4A1 WT = molecular target: T2, H. sapiens eIF4A1 WT (Homo sapiens, UniProt P60842); assay: In vitro translation assay in reconstituted system with human factors; type: biochemical; details: for translation of reporter mRNA, Mean / translation of reporter mRNA, replicates: CAA repeats reporter, value at 0 μM RocA = 1
T2 construct: His tag (N); made in house; host or cells: E. coli BL21 Star (DE3)
T2 sequence (P60842 whole entry): as the sequence (P60842 whole entry F163H) above, with H163F counted along it
Description: (§1) The DNA fragments PCR-amplified from psiCHECK2−7×AGAGAG motifs or psiCHECK2-CAA repeats ([Iwasaki et al., 2016]) were used as a template for in vitro transcription with a T7-Scribe Standard RNA IVT Kit ([…]). RNA was capped and poly(A) tailed with a ScriptCap m^7G Capping System, a ScriptCap 2′-O-Methyltransferase Kit, and an A-Plus Poly(A) Polymerase Tailing Kit ([…]).
(§2) The reconstitution system for human translation has been described previously ([Iwasaki et al., 2019]; [Machida et al., 2018]; [Yokoyama et al., 2019]). The in vitro translation reaction and luciferase assay were performed as previously described ([Iwasaki et al., 2019]) with some modifications. The final concentrations of mRNA and the eIF4A protein were 60 ng/µl and 2.16 µM, respectively. The translation mixture was incubated for 2.5 hr. The fluorescence signal was detected using the Renilla-Glo Luciferase Assay System (Promega) and measured in an EnVision 2104 plate reader (PerkinElmer).

[3] = molecular target: T3, H. sapiens eIF4A1 Phe163Gly (Homo sapiens, UniProt P60842, F163G); assay: as above; type: biochemical; details: for translation of reporter mRNA, Mean / translation of reporter mRNA, replicates: CAA repeats reporter, value at 0 μM RocA = 1
T3 construct: His tag (N); made in house; host or cells: E. coli BL21 Star (DE3)
T3 sequence (P60842 whole entry F163G): as the sequence (P60842 whole entry F163H) above, with H163G counted along it
Description: as §1, §2

Compound: COC(=O)[C@H]1[C@@H](O)[C@@]2(O)c3c(OC)cc(OC)cc3O[C@@]2(c2ccc(OC)cc2)[C@@H]1c1ccccc1 [Aglafoline, methyl rocaglate]
- in planta fungal biomass [1]: resulted in rocaglate resistance in the fungi

Compound: COc1ccc([C@@]23Oc4cc(OC)cc(OC)c4[C@]2(O)[C@H](O)[C@H](C(=O)N(C)C)[C@H]3c2ccccc2)cc1 [RocA, rocaglamide A]
- fluorescence polarization, Mean ([2]; ADP + Pi, protein 0.01 μM): -0.03005
- fluorescence polarization, replicates ([2]; ADP + Pi, protein 0.01 μM): 0.07104 and -0.06011 and -0.1011
- fluorescence polarization, Mean ([2]; ADP + Pi, protein 0.05 μM): -0.008197
- fluorescence polarization, replicates ([2]; ADP + Pi, protein 0.05 μM): 0.03005 and 0.005464 and -0.06011
- fluorescence polarization, Mean ([2]; ADP + Pi, protein 0.075 μM): 0.02186
- fluorescence polarization, replicates ([2]; ADP + Pi, protein 0.075 μM): 0.03005 and 0.01366 and 0.02186
- fluorescence polarization, Mean ([2]; ADP + Pi, protein 0.1 μM): 0.01639
- fluorescence polarization, replicates ([2]; ADP + Pi, protein 0.1 μM): 0.04645 and -0.01913 and 0.02186
- fluorescence polarization, Mean ([2]; ADP + Pi, protein 0.5 μM): 0.08197
- fluorescence polarization, replicates ([2]; ADP + Pi, protein 0.5 μM): 0.04645 and 0.1038 and 0.09563
- fluorescence polarization, Mean ([2]; ADP + Pi, protein 0.75 μM): 0.06831
- fluorescence polarization, replicates ([2]; ADP + Pi, protein 0.75 μM): 0.1448 and -0.01913 and 0.07923
- fluorescence polarization, Mean ([2]; ADP + Pi, protein 1 μM): 0.1694
- fluorescence polarization, replicates ([2]; ADP + Pi, protein 1 μM): 0.2514 and 0.1694 and 0.08743
- fluorescence polarization, Mean ([2]; ADP + Pi, protein 5 μM): 0.3306
- fluorescence polarization, replicates ([2]; ADP + Pi, protein 5 μM): 0.3415 and 0.3661 and 0.2842
- fluorescence polarization, Mean ([2]; ADP + Pi, protein 7.5 μM): 0.4153
- fluorescence polarization, replicates ([2]; ADP + Pi, protein 7.5 μM): 0.3579 and 0.4973 and 0.3907
- fluorescence polarization, Mean ([2]; ADP + Pi, protein 10 μM): 0.5765
- fluorescence polarization, replicates ([2]; ADP + Pi, protein 10 μM): 0.694 and 0.5301 and 0.5055
- fluorescence polarization, Mean ([2]; ADP + Pi, protein 25 μM): 0.6311
- fluorescence polarization, replicates ([2]; ADP + Pi, protein 25 μM): 0.6366 and 0.7022 and 0.5546
- fluorescence polarization, Mean ([2]; ADP + Pi, protein 50 μM): 0.8251
- fluorescence polarization, replicates ([2]; ADP + Pi, protein 50 μM): 0.7268 and 0.8579 and 0.8907
- fluorescence polarization, Mean ([2]; AMP-PNP, protein 0.01 μM): -0.005464
- fluorescence polarization, Mean ([2]; AMP-PNP, protein 0.05 μM): 0.0847
- fluorescence polarization, Mean ([2]; AMP-PNP, protein 0.075 μM): 0.1721
- fluorescence polarization, Mean ([2]; AMP-PNP, protein 0.1 μM): 0.3169
- fluorescence polarization, replicates ([2]; AMP-PNP, protein 0.1 μM): 0.2705 and 0.3525 and 0.3279
- fluorescence polarization, Mean ([2]; AMP-PNP, protein 0.5 μM): 0.7951
- fluorescence polarization, replicates ([2]; AMP-PNP, protein 0.5 μM): 0.7705 and 0.7869 and 0.8279
- fluorescence polarization, Mean ([2]; AMP-PNP, protein 0.75 μM): 0.8306
- fluorescence polarization, replicates ([2]; AMP-PNP, protein 0.75 μM): 0.8361
- fluorescence polarization, Mean ([2]; AMP-PNP, protein 1 μM): 0.9317
- fluorescence polarization, Mean ([2]; AMP-PNP, protein 5 μM): 0.9536
- fluorescence polarization, Mean ([2]; AMP-PNP, protein 7.5 μM): 0.8907
- fluorescence polarization, Mean ([2]; AMP-PNP, protein 10 μM): 0.9481
- fluorescence polarization, Mean ([2]; AMP-PNP, protein 25 μM): 0.9481
- fluorescence polarization, Mean ([2]; AMP-PNP, protein 50 μM): 1
- translation of reporter mRNA, Mean (H. sapiens eIF4A1 WT; RocA 0.1 μM): 1.2394
- translation of reporter mRNA, replicates (H. sapiens eIF4A1 WT; RocA 0.1 μM): 0.9075 and 1.715 and 1.095
- translation of reporter mRNA, Mean (H. sapiens eIF4A1 WT; RocA 1 μM): 1.148
- translation of reporter mRNA, replicates (H. sapiens eIF4A1 WT; RocA 1 μM): 0.7715 and 1.702 and 0.9709
- translation of reporter mRNA, Mean (H. sapiens eIF4A1 WT; RocA 10 μM): 1.012
- translation of reporter mRNA, replicates (H. sapiens eIF4A1 WT; RocA 10 μM): 0.7743 and 1.31 and 0.9501
- translation of reporter mRNA (H. sapiens eIF4A1 WT; polypurine motif-possessing reporter mRNA, Figure 3A): translation reduction from polypurine motif-possessing reporter mRNA
- translation of reporter mRNA, Mean ([3]; RocA 0.1 μM): 1.06
- translation of reporter mRNA, replicates ([3]; RocA 0.1 μM): 0.8871 and 1.301 and 0.9923
- translation of reporter mRNA, Mean ([3]; RocA 1 μM): 1.42
- translation of reporter mRNA, replicates ([3]; RocA 1 μM): 0.8083 and 2.551 and 0.9008
- translation of reporter mRNA, Mean ([3]; RocA 10 μM): 0.918
- translation of reporter mRNA, replicates ([3]; RocA 10 μM): 0.6256 and 1.131 and 0.9971
- translation of reporter mRNA ([3]; polypurine motif reporter mRNA, Figure 3A): prevented the translation repression mediated by RocA
